Where two headings read alike, the source gives them in different places.
Key:
human EP2 receptors = biological target: T1, human EP2 receptors (Homo sapiens, UniProt P43116); test: Competition radioligand binding ([3H]PGE2), EP2; conditions: read-out: BINDING IC50 HEP2
T1 construct: expressed in transfected cells; host or cells: HEK 293

hEP2/Gqs5 = biological target: T2, hEP2/Gqs5 (Homo sapiens, UniProt P43116); test: FLIPR calcium signal, hEP2; format: cell-based
T2 construct: expressed in transfected cells; host or cells: HEK-293(EBNA)
T2 sequence (P43116 whole entry): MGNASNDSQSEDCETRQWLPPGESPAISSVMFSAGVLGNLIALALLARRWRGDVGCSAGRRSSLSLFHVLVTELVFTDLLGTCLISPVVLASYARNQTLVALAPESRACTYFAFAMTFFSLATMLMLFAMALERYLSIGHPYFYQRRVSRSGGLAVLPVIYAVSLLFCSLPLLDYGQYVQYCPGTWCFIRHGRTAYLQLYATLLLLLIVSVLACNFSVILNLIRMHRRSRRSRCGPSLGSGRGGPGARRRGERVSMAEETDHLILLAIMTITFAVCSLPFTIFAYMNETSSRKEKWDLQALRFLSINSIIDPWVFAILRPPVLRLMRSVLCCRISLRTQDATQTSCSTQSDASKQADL
Procedure, shortened: (§1)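 HEK-293(EBNA) cells stably expressing the recombinant human receptor were loaded with 2 μM Fluo-4 AM for 45 min and read on FLIPR at 37° C in HBSS-HEPES pH 7.4. Peak fluorescence rise was expressed relative to buffer and standard agonist controls (BW245C, PGE2 or U-46619 by receptor); compounds were run 10^−5 to 10^−11 M in duplicate, n≧3.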

hTP = biological target: T3, hTP (Homo sapiens, UniProt P21731); test: FLIPR calcium signal, hTP; format: cell-based
T3 construct: expressed in transfected cells; host or cells: HEK-293(EBNA)
T3 sequence (P21731 1-343): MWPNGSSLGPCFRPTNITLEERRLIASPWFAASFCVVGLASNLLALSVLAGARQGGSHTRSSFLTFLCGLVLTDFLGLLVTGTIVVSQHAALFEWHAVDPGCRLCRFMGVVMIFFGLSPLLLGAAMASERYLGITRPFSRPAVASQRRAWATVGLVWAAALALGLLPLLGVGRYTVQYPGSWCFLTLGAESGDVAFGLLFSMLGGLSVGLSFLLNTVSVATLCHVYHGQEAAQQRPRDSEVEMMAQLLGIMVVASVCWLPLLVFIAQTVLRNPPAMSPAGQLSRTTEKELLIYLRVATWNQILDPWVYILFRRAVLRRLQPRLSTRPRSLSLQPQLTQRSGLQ
Description: (§2) HEK-293(EBNA) cells, stably expressing one type or subtype of recombinant human prostaglandin receptors (prostaglandin receptors expressed: hDP/Gqs5; hEP1; hEP2/Gqs5; hEP3A/Gqi5; hEP4/Gqs5; hFP; hIP; hTP), were cultured in 100 mm culture dishes in high-glucose DMEM medium containing 10% fetal bovine serum, 2 mM 1-glutamine, 250 μg/ml geneticin (G418) and 200 μg/ml hygromycin B as selection markers, and 100 units/ml penicillin G, 100 μg/ml streptomycin and 0.25 μg/ml amphotericin B. • (b) Calcium Signal Studies on the FLIPR™
(§3) Cells were seeded at a density of 5×10^4 cells per well in Biocoat® Poly-D-lysine-coated black-wall, clear-bottom 96-well plates (Becton-Dickinson) and allowed to attach overnight in an incubator at 37° C. Cells were then washed two times with HBSS-HEPES buffer (Hanks Balanced Salt Solution without bicarbonate and phenol red, 20 mM HEPES, pH 7.4) using a Denley Cellwash plate washer (Labsystems). After 45 minutes of dye-loading in the dark, using the calcium-sensitive dye Fluo-4 AM at a final concentration of 2 μM, plates were washed four times with HBSS-HEPES buffer to remove excess dye leaving 100 μl in each well. Plates were re-equilibrated to 37° C. for a few minutes.
(§4) Cells were excited with an Argon laser at 488 nm, and emission was measured through a 510-570 nm bandwidth emission filter (FLIPR™, Molecular Devices, Sunnyvale, Calif.). Drug solution was added in a 50 μl volume to each well to give the desired final concentration. The peak increase in fluorescence intensity was recorded for each well. On each plate, four wells each served as negative (HBSS-HEPES buffer) and positive controls (standard agonists: BW245C (hDP); PGE2 (hEP1; hEP2/Gqs5; hEP3A/Gqi5; hEP4/Gqs5); PGF2α (hFP); carbacyclin (hIP); U-46619 (hTP), depending on receptor). The peak fluorescence change in each drug-containing well was then expressed relative to the controls.
(§5) Compounds were tested in a high-throughput (HTS) or concentration-response (CoRe) format. In the HTS format, forty-four compounds per plate were examined in duplicates at a concentration of 10^−5 M. To generate concentration-response curves, four compounds per plate were tested in duplicates in a concentration range between 10^−5 and 10^−11 M. The duplicate values were averaged. In either, HTS or CoRe format each compound was tested on at least 3 separate plates using cells from different passages to give an n≧3.

hEP4/Gqs5 = biological target: T4, hEP4/Gqs5 (Homo sapiens, UniProt P35408); test: FLIPR calcium signal, hEP4; format: cell-based; conditions: FLIPR Ca2+ signal, HEK-293(EBNA); read-out: FUNCTIONAL EC50 HEP4
T4 construct: expressed in transfected cells; host or cells: HEK-293(EBNA)
T4 sequence (P35408 whole entry): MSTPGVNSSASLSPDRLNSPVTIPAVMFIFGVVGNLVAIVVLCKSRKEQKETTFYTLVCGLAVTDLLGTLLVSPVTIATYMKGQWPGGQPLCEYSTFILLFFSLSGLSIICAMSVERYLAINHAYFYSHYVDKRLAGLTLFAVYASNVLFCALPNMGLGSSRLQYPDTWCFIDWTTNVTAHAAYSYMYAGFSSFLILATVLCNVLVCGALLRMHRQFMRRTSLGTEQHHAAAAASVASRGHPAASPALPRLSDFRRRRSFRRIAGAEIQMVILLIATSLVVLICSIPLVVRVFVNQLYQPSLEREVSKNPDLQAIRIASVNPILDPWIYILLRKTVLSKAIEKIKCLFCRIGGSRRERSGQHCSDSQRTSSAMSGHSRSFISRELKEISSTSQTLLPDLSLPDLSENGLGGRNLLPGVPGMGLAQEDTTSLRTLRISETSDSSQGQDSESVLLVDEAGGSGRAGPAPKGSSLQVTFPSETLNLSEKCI
Procedure, shortened: as §1

EP4 receptors = biological target: T5, EP4 receptors (Homo sapiens, UniProt P35408); test: Radioligand binding ([3H]PGE2), EP4; conditions: read-out: BINDING IC50 HEP4
T5 construct: expressed in transfected cells; host or cells: HEK-293
T5 sequence (P35408 whole entry): as above
Description: HEK-293 cells stably expressing the human or feline FP receptor, or EP1, EP2, or EP4 receptors were washed with TME buffer, scraped from the bottom of the flasks, and homogenized for 30 sec using a Brinkman PT 10/35 polytron. TME buffer was added to achieve a final 40 ml volume in the centrifuge tubes (the composition of TME is 100 mM TRIS base, 20 mM MgCl2, […]; 10N HCl is added to achieve a pH of 7.4).
The cell homogenate was centrifuged at 19000 r.p.m. for 20 min at 4° C. using a Beckman Ti-60 rotor. The resultant pellet was resuspended in TME buffer to give a final 1 mg/ml protein concentration, as determined by Biorad assay. Radioligand binding competition assays vs. [^3H-]17 —phenyl PGF2α (5 nM) were performed in a 100 μl volume for 60 min. Binding reactions were started by adding plasma membrane fraction. The reaction was terminated by the addition of 4 ml ice-cold TRIS-HCl buffer and rapid filtration through glass fiber GF/B filters using a Brandel cell harvester. The filters were washed 3 times with ice-cold buffer and oven dried for one hour.
[^3H-] PGE2 (specific activity 180 Ci mmol) was used as the radioligand for EP receptors. [^3H] 17-phenyl PGF2α was employed for FP receptor binding studies. Binding studies employing EP1, EP2, EP4 and FP receptors were performed in duplicate in at least three separate experiments. A 200 μl assay volume was used. Incubations were for 60 min at 25° C. and were terminated by the addition of 4 ml of ice-cold 50 mM TRIS-HCl, followed by rapid filtration through Whatman GF/B filters and three additional 4 ml washes in a cell harvester (Brandel). Competition studies were performed using a final concentration of 5 nM [^3H]—PGE2, or 5 nM [^3H] 17-phenyl PGF2α and non-specific binding determined with 10^−5M of unlabeled PGE2, or 17-phenyl PGF2α, according to receptor subtype studied.

hEP1 = biological target: T6, hEP1 (Homo sapiens, UniProt P34995); test: FLIPR calcium signal, hEP1; format: cell-based; conditions: FLIPR Ca2+ signal, HEK-293(EBNA); read-out: FUNCTIONAL EC50 HEP1
T6 construct: expressed in transfected cells; host or cells: HEK-293(EBNA)
T6 sequence (P34995 1-402): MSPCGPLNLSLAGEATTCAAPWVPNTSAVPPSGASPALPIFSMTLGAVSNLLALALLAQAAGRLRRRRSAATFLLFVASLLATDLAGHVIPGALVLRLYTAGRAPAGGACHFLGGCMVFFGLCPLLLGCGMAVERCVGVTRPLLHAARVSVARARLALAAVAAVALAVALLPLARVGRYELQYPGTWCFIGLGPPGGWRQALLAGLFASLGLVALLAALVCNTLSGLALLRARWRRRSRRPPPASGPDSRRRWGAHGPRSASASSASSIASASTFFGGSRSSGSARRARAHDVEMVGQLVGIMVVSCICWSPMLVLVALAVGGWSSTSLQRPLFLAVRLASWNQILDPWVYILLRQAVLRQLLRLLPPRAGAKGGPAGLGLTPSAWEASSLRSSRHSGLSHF
Description: as §2, §3, §4, §5

hIP = biological target: T7, hIP (Homo sapiens, UniProt P43119); test: FLIPR calcium signal, hIP; format: cell-based; conditions: FLIPR Ca2+ signal, HEK-293(EBNA); read-out: FUNCTIONAL EC50 HIP
T7 construct: expressed in transfected cells; host or cells: HEK-293(EBNA)
T7 sequence (P43119 whole entry): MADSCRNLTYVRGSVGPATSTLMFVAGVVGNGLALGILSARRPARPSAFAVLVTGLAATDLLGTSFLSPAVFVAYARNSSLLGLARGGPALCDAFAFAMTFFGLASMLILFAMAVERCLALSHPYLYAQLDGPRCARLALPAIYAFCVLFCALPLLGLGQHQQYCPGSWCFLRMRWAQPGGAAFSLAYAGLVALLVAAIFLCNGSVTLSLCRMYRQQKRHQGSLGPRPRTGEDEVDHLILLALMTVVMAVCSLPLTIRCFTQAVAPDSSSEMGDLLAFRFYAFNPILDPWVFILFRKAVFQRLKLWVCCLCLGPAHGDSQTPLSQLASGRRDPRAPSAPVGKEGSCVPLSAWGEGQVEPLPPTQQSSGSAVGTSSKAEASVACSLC
Description: as §2, §3, §4, §5

hEP3A/Gqi5 = biological target: T8, hEP3A/Gqi5 (Homo sapiens, UniProt P43115); test: FLIPR calcium signal, hEP3A; format: cell-based; conditions: FLIPR Ca2+ signal, HEK-293(EBNA); read-out: FUNCTIONAL EC50 HEP3A
T8 construct: expressed in transfected cells; host or cells: HEK-293(EBNA)
T8 sequence (P43115 1-390): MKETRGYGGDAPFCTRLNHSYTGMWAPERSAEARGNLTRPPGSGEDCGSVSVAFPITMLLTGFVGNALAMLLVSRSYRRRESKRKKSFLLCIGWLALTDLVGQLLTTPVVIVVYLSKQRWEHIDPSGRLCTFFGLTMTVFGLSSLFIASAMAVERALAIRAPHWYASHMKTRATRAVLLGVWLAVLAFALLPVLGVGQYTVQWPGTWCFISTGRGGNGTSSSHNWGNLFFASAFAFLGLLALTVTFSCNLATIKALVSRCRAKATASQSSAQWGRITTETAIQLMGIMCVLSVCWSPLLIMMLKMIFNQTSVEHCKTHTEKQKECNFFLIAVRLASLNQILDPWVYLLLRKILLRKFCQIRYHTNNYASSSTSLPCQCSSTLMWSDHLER
Description: as §2, §3, §4, §5

hDP/Gqs5 = biological target: T9, hDP/Gqs5 (Homo sapiens, UniProt Q13258); test: FLIPR calcium signal, hDP; format: cell-based; conditions: FLIPR Ca2+ signal, HEK-293(EBNA); read-out: FUNCTIONAL EC50 HDP
T9 construct: expressed in transfected cells; host or cells: HEK-293(EBNA)
T9 sequence (Q13258 1-359): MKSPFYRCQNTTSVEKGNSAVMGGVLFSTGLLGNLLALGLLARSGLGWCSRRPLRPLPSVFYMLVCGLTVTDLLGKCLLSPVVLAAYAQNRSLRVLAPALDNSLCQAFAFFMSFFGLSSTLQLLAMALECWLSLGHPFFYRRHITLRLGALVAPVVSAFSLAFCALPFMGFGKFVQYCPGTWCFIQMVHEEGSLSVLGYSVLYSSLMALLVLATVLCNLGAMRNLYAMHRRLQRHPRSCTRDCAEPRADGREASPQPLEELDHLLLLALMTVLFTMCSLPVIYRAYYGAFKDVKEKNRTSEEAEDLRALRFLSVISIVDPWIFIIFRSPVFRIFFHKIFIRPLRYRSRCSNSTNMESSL
Description: as §2, §3, §4, §5

[1] = FLIPR Ca2+ signal, HEK-293(EBNA), read-out: FUNCTIONAL EC50 HEP2
[2] = FLIPR Ca2+ signal, HEK-293(EBNA), read-out: FUNCTIONAL EC50 HTP

T1 sequence (P43116 whole entry): as the sequence (P43116 whole entry) above

Structure (SMILES)	EC50 (hEP2/Gqs5; [1]) [µM]	EC50 (hTP; [2]) [µM]	EC50 (hEP1) [µM]	other results
O=C(O)CCCCCC[C@@H]1[C@@H](c2ccc3c(c2)CCC3O)[C@H](O)C[C@H]1Cl (some centres unmarked)	0.529	2.99		IC50 (human EP2 receptors): 13.1 µM
COC(=O)CCCCCC[C@@H]1[C@@H](c2ccc3c(c2)CCC3O)[C@H](O)C[C@H]1Cl (some centres unmarked)		17.5		EC50 (hEP4/Gqs5): 22.5 µM
O=C(O)CCCCCC[C@H]1C(=O)C[C@@H](O)[C@@H]1c1ccc(C2(O)CCC2)cc1	> 10			EC50 (hIP): > 10 µM
O=C(O)CCCCCC[C@H]1C(=O)CC[C@@H]1c1ccc(C(O)C2CCCCC2)cc1 (some centres unmarked)				EC50 (hEP2/Gqs5; read-out: FUNCTIONAL Ca2+ EC50 HEP2): > 10 µM; EC50 (hTP; read-out: FUNCTIONAL Ca2+ EC50 HTP): > 10 µM
CC(C)(C)c1ccc([C@@H]2[C@@H](CCCCCCC(=O)O)[C@H](Cl)C[C@H]2O)cc1 [drawing 70]	0.264	> 10	> 10	EC50 (hEP3A/Gqi5): > 10 µM; EC50 (hDP/Gqs5): > 10 µM

Further compounds by falling EC50 (hTP; [2]), results first:

EC50 (hEP2/Gqs5; [1]) [µM]	EC50 (hTP; [2]) [µM]	EC50 (hEP1) [µM]	Structure (SMILES)	other results
	0.506		COC(=O)CCCCCC[C@@H]1[C@@H](c2ccc3c(c2)CCC3)[C@H](O)C[C@H]1Cl	IC50 (EP4 receptors): 13.1 µM
0.818	0.2	0.221	O=C(O)CCCCCC[C@@H]1[C@@H](c2ccc3c(c2)CCC3)[C@H](O)C[C@H]1Cl	IC50 (human EP2 receptors): 6.25 µM
3.13	0.094	1.87	Cc1ccc([C@H]2[C@H](O)CC(=O)[C@@H]2CCCCCCC(=O)O)cc1	

From patent US7799821B2, “Therapeutic compounds” (Allergan, Inc., priority 2004, dated 2010)
